IC50 and melting point data for 10 molecules are collected here from patent US20240270720A1, “INDAZOLE YL BENZIMIDAZOLE DERIVATIVE OR PHARMACEUTICALLY ACCEPTABLE SALT THEREOF, AND USE THEREOF” (INDUSTRY-UNIVERSITY COOPERATION FOUNDATION HANYANG …, priority 2021, published 2024).

One data set addresses T1, FLT3 wild type (Homo sapiens, UniProt P36888).
T1 construct: purchased Reaction Biology Corp. (Kinase HotSpot service)
T1 sequence (P36888 27-993): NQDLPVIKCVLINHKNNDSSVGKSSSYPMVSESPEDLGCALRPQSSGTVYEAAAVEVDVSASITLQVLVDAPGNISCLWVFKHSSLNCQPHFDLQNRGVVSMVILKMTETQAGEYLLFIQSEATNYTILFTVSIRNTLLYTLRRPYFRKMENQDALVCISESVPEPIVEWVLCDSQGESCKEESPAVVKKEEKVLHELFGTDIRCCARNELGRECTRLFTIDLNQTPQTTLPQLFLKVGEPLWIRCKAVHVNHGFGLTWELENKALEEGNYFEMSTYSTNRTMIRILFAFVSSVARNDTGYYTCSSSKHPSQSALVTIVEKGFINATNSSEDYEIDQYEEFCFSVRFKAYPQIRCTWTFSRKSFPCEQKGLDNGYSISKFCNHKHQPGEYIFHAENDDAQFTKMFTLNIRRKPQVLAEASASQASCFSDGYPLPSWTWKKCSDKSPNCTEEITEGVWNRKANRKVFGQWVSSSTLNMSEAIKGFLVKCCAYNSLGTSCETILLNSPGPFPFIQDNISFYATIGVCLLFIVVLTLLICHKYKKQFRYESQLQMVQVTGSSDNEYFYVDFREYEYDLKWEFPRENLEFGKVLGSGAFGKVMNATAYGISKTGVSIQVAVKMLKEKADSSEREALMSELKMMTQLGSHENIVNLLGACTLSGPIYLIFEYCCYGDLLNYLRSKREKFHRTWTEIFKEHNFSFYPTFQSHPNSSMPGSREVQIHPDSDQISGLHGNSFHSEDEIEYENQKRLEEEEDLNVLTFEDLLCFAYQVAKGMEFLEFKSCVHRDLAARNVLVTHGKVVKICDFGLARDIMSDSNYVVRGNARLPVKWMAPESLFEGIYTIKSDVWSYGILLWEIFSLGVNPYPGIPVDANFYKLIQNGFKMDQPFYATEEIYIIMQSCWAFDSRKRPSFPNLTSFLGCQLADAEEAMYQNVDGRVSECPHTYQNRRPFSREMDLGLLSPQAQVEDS
The experiment in a line: Kinase HotSpot radiometric kinase assay (Reaction Biology). Format: biochemical. The note with it: Table 1; read-out: FLT3 IC50.

pIC50: −log10 of the molar value.

Protocol for FLT3 wild type: Reaction Biology Corp. Kinase HotSpot SM service (www.reactionbiology.com) was used to determine IC50 values for all compounds and kinase profiles. The analysis protocol was as follows: In a final reaction volume of 25 μL, a peptide substrate, [[sequence]], 5 μM, ATP 10 μM, and FLT3(h) (5 to 10 mU) were incubated with 25 mM Tris pH 7.5, 0.02 mM EGTA, 0.66 mg/mL myelin basic protein, 10 mM Mg acetate and [γ-33P-ATP] (a concentration of approximately 500 cpm/pmol was required for specific activity). The reaction was initiated by adding the Mg-ATP mixture. After incubation at room temperature for 40 minutes, the reaction was stopped by adding 5 μL of a 3% phosphoric acid solution. Thereafter, 10 μL of the reactant was spotted on a P30 filter mat and washed three times for 5 minutes in 75 mM phosphoric acid and once in methanol before drying and scintillation counting.

On to `Cc1nccn1-c1cc(C(=O)Nc2ccc3[nH]c(-c4ccc5cn[nH]c5c4)nc3c2)cc(C(F)(F)F)c1` [Compound 8c, N-(2-(1H-indazol-6-yl)-1H-benzo[di]imidazol-5-yl)-3-(2-methyl-1H-imidazol-1-yl)-5-(trifluoromethyl)benzamide], for which the melting point was in the range of 251 to 253 °C. On FLT3 wild type, the pIC50 was 6.33.
As for `O=C(Nc1ccc2[nH]c(-c3ccc4cn[nH]c4c3)nc2c1)c1cnn(-c2ccccc2)c1C(F)(F)F` [Compound 8g, N-(2-(1H-indazol-6-yl)-1H-benzo[di]imidazol-5-yl)-1-phenyl-5-(trifluoromethyl)-1H-pyrazole-4-carboxamide], the melting point was 258 to 260 °C. Also, the pIC50 at FLT3 wild type is 5.96.
The corresponding values for `COc1ccc(/C=C/C(=O)Nc2ccc3[nH]c(-c4ccc5cn[nH]c5c4)nc3c2)cc1` [Compound 8k, (E)-N-(2-(1H-indazol-6-yl)-1H-benzo[di]imidazol-5-yl)-3-(4-methoxyphenyl)acrylamide] are 206 to 208 °C and 6.12.
Take `CC(C)(C)c1cc(NC(=O)Nc2ccc3[nH]c(-c4ccc5cn[nH]c5c4)nc3c2)no1` [Compound 8l, 1-(2-(1H-indazol-6-yl)-1H-benzo[di]imidazol-5-yl)-3-(5-(tert-butyl)isoxazol-3-yl)urea]: the melting point fell in the range of 184 to 186 °C. Moreover, the pIC50 on FLT3 wild type was 5.93.
Regarding `CN(C)C1CCN(c2cc(C(=O)Nc3ccc4[nH]c(-c5ccc6cn[nH]c6c5)nc4c3)cc(C(F)(F)F)c2)C1` (stereo not drawn) [Compound 8n, N-(2-(1H-indazol-6-yl)-1H-benzo[di]imidazol-5-yl)-3-(3-(dimethylamino)pyrrolidin-1-yl)-5-(trifluoromethyl)benzamide], the melting point is 283 to 285 °C. Also, the pIC50 on FLT3 wild type is 6.54.
The molecule `O=C(Nc1ccc2[nH]c(-c3ccc4cn[nH]c4c3)nc2c1)c1cc(CN2CCN(C3CC3)CC2)cc(C(F)(F)F)c1` [Compound 8q, N-(2-(1H-indazol-6-yl)-1H-benzo[di]imidazol-5-yl)-3-((4-cyclopropylpiperazin-1-yl)methyl)-5-(trifluoromethyl)benzamide] had a melting point of 150 to 152 °C. Moreover, at FLT3 wild type, the negative-log IC50 (pIC50) is 6.28.
In the case of `CN1CCC(Nc2cc(C(=O)Nc3ccc4[nH]c(-c5ccc6cn[nH]c6c5)nc4c3)cc(C(F)(F)F)c2)CC1` [Compound 8s, N-(2-(1H-indazol-6-yl)-1H-benzo[di]imidazol-5-yl)-3-((1-methylpiperidin-4-yl)amino)-5-(trifluoromethyl)benzamide], the melting point lay in the range of 175 to 177 °C.
`CN1CCC[C@@H](Nc2cc(C(=O)Nc3ccc4[nH]c(-c5ccc6cn[nH]c6c5)nc4c3)cc(C(F)(F)F)c2)C1` [Compound 8v, N-(2-(1H-indazol-6-yl)-1H-benzo[di]imidazol-5-yl)-3-((1-methylpiperidin-3-yl)amino)-5-(trifluoromethyl)benzamide] came in with a melting point of 213 to 214 °C.
Molecule `CCN1CCN(Cc2ccc(C(=O)Nc3ccc4[nH]c(-c5ccc6cn[nH]c6c5)nc4c3)cc2C(F)(F)F)CC1` [Compound 8w, N-(2-(1H-indazol-6-yl)-1H-benzo[di]imidazol-5-yl)-4-((4-ethylpiperazin-1-yl)methyl)-3-(trifluoromethyl)benzamide] yielded a melting point of 164 to 166 °C. The pIC50 on FLT3 wild type is 6.54.
`CN1CCC(Oc2ccc(C(=O)Nc3ccc4[nH]c(-c5ccc6cn[nH]c6c5)nc4c3)cc2C(F)(F)F)CC1` [Compound 8x, N-(2-(1H-indazol-6-yl)-1H-benzo[di]imidazol-5-yl)-4-((1-methylpiperidin-4-yl)oxy)-3-(trifluoromethyl)benzamide] yielded a melting point of 293 to 295 °C. On FLT3 wild type, the negative-log IC50 (pIC50) is 6.13.
